According to US20090186949A1, “Method for Treating Endothelial and Epithelial Cell Disorders by Administering High Molecular Weight PEG-Like Compounds” (THE UNIVERSITY OF CHICAGO, priority 2006, published 2009):

Experiments:
[1] = test system: P. aeruginosa PAO1 and 27853; type: cell-based, Pseudomonas aeruginosa
[2] = test system: PA-I lectin/adhesin expression in P. aeruginosa; type: cell-based, Pseudomonas aeruginosa
[3] = test system: human pulmonary artery endothelial cells (HPAEC); test: Reversal of thrombin- or LPS-induced barrier disruption (TEER); type: cell-based; details: LPS

C=CCN1C[C@H](C)N([C@H](c2ccc(C(=O)N(CC)CC)cc2)c2cccc(O)c2)C[C@H]1C [BW373U86]
biofilm production [1]: especially increased with the δ agonist
PA-I protein (immunoblot) [2]: induced PA-I protein to the same degree as C4-HSL

lipopolysaccharide [LPS]
duration of decrease in barrier resistance [3]: over 20 hours
